Data taken from BindingDB's records for doi:10.1021/jm00107a050 (Merck Research Laboratories, 1991).
pIC50: −log10 of the molar value.

Target: T1, Dimer of Gag-Pol polyprotein [489-587] (Human immunodeficiency virus 1, UniProt P12497)
T1 construct: 489-587
Experiment: Protease Inhibition Assay
Conditions: pH 5.5; 30 °C
Description: Sensitivity of HIV-1 protease activity to protease inhibitors was determined by a peptide substrate cleavage assay. Protease products were analyzed on a reverse-phase high-pressure liquid chromatograph.

| SMILES | pIC50 |
| --- | --- |
| CCC(C)C(NC(=O)[C@H](C/C=C/c1ccccc1)C[C@H](O)[C@H](Cc1ccccc1)NC(=O)OC(C)(C)C)C(=O)NCc1nc2ccccc2[nH]1 (stereo partly drawn) [tert-butyl N-[(2S,3S,5R)-5-({1-[(1H-1,3-benzodiazol-2-ylmethyl)carbamoyl]-2-methylbutyl}carbamoyl)-3-hydroxy-1-phenyl-5-[(2E)-3-phenylprop-2-en-1-yl]pentan-2-yl]carbamate] | 10.52 |
| CCC(C)C(NC(=O)[C@H](Cc1ccccc1)C[C@H](O)[C@H](Cc1ccccc1)NC(=O)OC(C)(C)C)C(=O)NCc1nc2ccccc2[nH]1 (stereo partly drawn) [tert-butyl N-[(2S,3S,5R)-5-({1-[(1H-1,3-benzodiazol-2-ylmethyl)carbamoyl]-2-methylbutyl}carbamoyl)-5-benzyl-3-hydroxy-1-phenylpentan-2-yl]carbamate] | 10.15 |
